Laboratory results taken from patent US20100056483A1, “METHODS AND COMPOSITIONS FOR THE TREATMENT AND PREVENTION OF BONE LOSS” (OHIO UNIVERSITY, priority 2008, published 2010).

Assays:
[1] = broad-spectrum divalent-cation chelator; cited from earlier work
[2] = OVX rats; 200 mg/kg/day CaEDTA intraperitoneal; weighed weekly
Method: The temperature inside the chambers was 22° C. (±2) with relative humidity from 40 to 60%.
The rats were weighed and euthanized with carbon dioxide.

Compound: O=C(O)CN(CCN(CC(=O)O)CC(=O)O)CC(=O)O.[Ca] [CaEDTA, Calcium ethylenediaminetetra-acetic acid]
- Affinity for zinc relative to calcium [1]: binds zinc with higher affinity than Calcium
- Effect on body weight [2]: no effect on body weight
